According to patent publication US20110245528A1, “THERAPEUTIC COMPOUNDS” (priority 2008, published 2011):

Legend:
[1] = test system: Lewis rats; experiment: Rat Collagen-induced Arthritis (rCIA) Model; type: in vivo; conditions: paw swelling, bovine type II collagen-induced arthritis, oral gavage 0.3 mg/kg BID from day 8, day of peak disease, typically day 17
Method: Two-month-old, female Lewis rats (Charles River Labs) were anesthetized with 3-5% isoflurane and arthritis was induced by intradermal injection of 0.3 ml (100 μl at three different sites) of an emulsion containing 1.5 mg/ml of bovine type II collagen (CII) (Elastin Products Co. Inc. Owensville, Mo.) in Incomplete Freund's Adjuvant (IFA) (Difco Laboratories, Detroit, Mich.) on day 0 at the base of the tail using a 30 gauge needle. A second injection was given on day 6. Control rats were injected with an equal amount of IFA only.
Test compounds of Formula I are formulated by diluting concentrated ethanol stock solutions with phosphate buffered saline (PBS) and dosed by oral gavage at 0.3 mg/kg twice a day (BID). Dosing was initiated on day 8 and continued to the end of the study, generally day 19 or day 20. Control animals were administered PBS alone.
The volume of both hind paws were measured using a water displacement plethysmometer (Ugo Basile, Biological Research Apparatus, Italy), and the onset of arthritis was indicated by increased paw volume, which appears approximately on day 11 post injection. Both paw volumes and body weights are measured throughout the study every 2-3 days. Nineteen to twenty-one days after CII injection, the rats are euthanized with CO2. Blood is collected by cardiac puncture and serum is saved. Both hind ankles are collected in 10% buffered formalin and saved (they can later be processed for histology).
Percent inhibition values were measured as follows. First, the magnitude of disease effect was calculated by taking the difference in paw swelling between control animals and animals that had not been administered CII (“untreated effect”). Then, the difference is paw swelling between the compound-treated animals and the animals that had not been administered CII was determined (“treated effect”). The difference between the untreated effect and the treated effect is then divided by the […] and multiplied by 100 to arrive at percent inhibition. Percent inhibition reported was from day of “peak” or maximal disease (manifested by maximum paw swelling), typically day 17.

[2] = test system: Balb/c mice; experiment: Murine Delayed-type-Hypersensitivity (DTH) Model; type: in vivo; conditions: Mus musculus, iv; ear swelling after DNFB challenge; 0.3 mg/kg intravenously once daily; measured within 24 to 48 hours after ear challenge
Method: Balb/c mice were sensitized by application of 20 μl of 0.5% of DNFB dissolved in acetone/olive oil to their footpads on day 0 and day 1. On day 5 animals are dosed intravenously with 0.3 mg/kg of test compound (or a negative control). Fifteen minutes later, 10 μl of 0.8% of DNFB dissolved in acetone/olive oil is topically applied externally on the right ear of the animal. As a control, the left ear is treated the same way with vehicle alone (acetone/olive oil).
The compounds (controls and test) are administered once daily until the completion of the study.
Within 24 to 48 hours after ear challenge, animals are anesthetized with isoflurane and the ear swelling is measured using a micrometer. The micrometer calipers are closed around the top portion of the each external ear until resistance from the ear is felt. Usually, the peak of the ear swelling happens around 48 hours after challenge.
Percent inhibition is determined in a similar manner as described for the CII model, above.

| SMILES | inhibition in vivo at 0.3 mg/kg [1] [%] | inhibition in vivo at 0.3 mg/kg [2] [%] |
| --- | --- | --- |
| C#CCC/C=C/C=C/C#C[C@@H](O)CCCC(=O)O [Compound 302] | 37 | 24 |
| C#CC[C@@H](O)/C=C/C=C/C#C[C@H](O)CCCC(=O)O [Compound 323] | 38 | 46 |
| O=C(O)CC[C@H](O)C#C/C=C/C=C/[C@H](O)CC1CC1 [Compound 315] | 7 | 32 |
| O=C(O)CCC[C@H](O)C#C/C=C/C=C/[C@H](O)CC#Cc1ccc(F)cc1 [Compound 306] |  | 16 |
| O=C(O)CCC[C@H](O)C#C/C=C/C=C/[C@H](O)CC1CC1 [Compound 304] | 28 | 20 |
| C#CC[C@@H](O)/C=C/C=C/C#CC(F)(F)CCCC(=O)O [Compound 320] | 18 | 35 |
| O=C(O)CCC[C@H](O)C#C/C=C/C=C/[C@H](O)CC#Cc1ccc(Cl)c(Cl)c1 [Compound 314] | 27 | 28 |
| C#CC[C@@H](O)/C=C/C=C/[C@@H]1C[C@@H]1[C@@H](O)CCCC(=O)O [Compound 321] | 10 | 32 |
| C#CC[C@@H](O)/C=C/C=C/C#CCCCCC(=O)O [Compound 301] | 11 | 15 |
| O=C(O)CCC[C@H](O)C#C/C=C/C=C/[C@H](O)Cc1ccc(F)cc1 [Compound 303] | 0 | 21 |
